Structures are written as SMILES. The source made the active and inactive calls. No cut-off for these calls is given here.

Assay [1] deals with T1, Serine/threonine-protein kinase TAO2 (Homo sapiens) (UniProt Q9UL54).
T1 sequence (whole entry): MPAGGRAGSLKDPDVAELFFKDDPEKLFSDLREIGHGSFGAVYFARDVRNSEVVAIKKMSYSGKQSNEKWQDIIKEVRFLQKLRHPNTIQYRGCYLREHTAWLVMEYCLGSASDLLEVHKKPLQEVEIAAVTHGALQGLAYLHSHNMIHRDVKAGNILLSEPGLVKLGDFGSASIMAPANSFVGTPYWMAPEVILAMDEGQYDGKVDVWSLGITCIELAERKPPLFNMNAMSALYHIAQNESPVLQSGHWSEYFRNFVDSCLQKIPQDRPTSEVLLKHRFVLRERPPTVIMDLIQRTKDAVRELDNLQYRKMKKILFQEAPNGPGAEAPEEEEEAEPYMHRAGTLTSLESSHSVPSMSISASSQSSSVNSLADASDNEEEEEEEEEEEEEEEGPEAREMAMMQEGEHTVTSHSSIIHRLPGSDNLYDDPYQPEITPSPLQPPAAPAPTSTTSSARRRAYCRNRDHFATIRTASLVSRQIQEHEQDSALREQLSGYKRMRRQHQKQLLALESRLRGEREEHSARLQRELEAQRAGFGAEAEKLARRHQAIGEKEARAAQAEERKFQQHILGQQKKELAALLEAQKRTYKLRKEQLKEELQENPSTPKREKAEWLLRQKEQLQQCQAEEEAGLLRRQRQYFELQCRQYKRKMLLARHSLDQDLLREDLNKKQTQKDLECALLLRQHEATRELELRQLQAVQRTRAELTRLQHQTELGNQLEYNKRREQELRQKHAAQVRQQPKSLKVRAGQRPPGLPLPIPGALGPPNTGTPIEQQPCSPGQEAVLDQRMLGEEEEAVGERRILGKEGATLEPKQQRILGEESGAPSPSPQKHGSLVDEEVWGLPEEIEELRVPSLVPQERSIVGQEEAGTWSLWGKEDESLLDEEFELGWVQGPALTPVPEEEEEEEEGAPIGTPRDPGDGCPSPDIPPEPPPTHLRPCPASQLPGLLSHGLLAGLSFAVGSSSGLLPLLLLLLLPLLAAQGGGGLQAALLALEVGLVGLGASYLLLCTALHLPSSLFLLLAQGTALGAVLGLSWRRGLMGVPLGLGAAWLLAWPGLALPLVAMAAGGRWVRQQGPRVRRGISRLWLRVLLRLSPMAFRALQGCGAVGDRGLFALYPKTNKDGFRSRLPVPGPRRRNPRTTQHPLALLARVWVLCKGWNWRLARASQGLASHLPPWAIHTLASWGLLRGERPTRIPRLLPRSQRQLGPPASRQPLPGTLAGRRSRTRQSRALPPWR
Kind of assay: Inhibition of TAO2 Lys2 labeling site in human A-375 cells at 0.05 uM by KiNativ Profiling analysis relative to control. The assay is classed as cell-based.

The target in assay [2] is Calcium/calmodulin-dependent protein kinase type II subunit beta (Homo sapiens) (UniProt Q13554). Kind of assay: Inhibition of CAMK2B (unknown origin) at 10 uM by Ambit Kinomescan binding assay.
Sequence of Calcium/calmodulin-dependent protein kinase type II subunit beta (Homo sapiens) (Q13554 whole entry): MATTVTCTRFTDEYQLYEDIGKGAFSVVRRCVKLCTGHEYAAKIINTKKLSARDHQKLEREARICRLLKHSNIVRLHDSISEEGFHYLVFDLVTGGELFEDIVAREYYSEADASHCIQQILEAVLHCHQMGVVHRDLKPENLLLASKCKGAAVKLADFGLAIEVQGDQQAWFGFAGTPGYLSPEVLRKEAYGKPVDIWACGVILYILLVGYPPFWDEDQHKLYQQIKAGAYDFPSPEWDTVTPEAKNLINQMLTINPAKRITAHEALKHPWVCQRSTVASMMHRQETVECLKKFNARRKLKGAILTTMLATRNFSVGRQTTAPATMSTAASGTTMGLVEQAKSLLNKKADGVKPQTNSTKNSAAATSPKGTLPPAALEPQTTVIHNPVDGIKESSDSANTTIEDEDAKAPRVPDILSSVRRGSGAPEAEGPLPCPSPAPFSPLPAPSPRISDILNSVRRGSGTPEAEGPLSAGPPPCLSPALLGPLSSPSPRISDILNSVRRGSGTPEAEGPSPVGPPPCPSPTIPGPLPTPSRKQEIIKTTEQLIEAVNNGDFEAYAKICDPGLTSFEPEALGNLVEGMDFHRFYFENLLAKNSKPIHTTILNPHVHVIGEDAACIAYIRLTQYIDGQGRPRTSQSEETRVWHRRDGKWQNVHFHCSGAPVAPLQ
Assay [3] concerns the target AMPK alpha1/alpha2 (Homo sapiens) (UniProt P54646+Q13131). Kind of assay: Inhibition of AMPK alpha 1/2 K1 labeling site in human Huh-7 cells at 10 uM by KiNativ Profiling analysis relative to control. The assay is classed as cell-based.
Assay [4] deals with T2, Serine/threonine-protein kinase tousled-like 1 (Homo sapiens) (UniProt Q9UKI8).
T2 sequence (whole entry): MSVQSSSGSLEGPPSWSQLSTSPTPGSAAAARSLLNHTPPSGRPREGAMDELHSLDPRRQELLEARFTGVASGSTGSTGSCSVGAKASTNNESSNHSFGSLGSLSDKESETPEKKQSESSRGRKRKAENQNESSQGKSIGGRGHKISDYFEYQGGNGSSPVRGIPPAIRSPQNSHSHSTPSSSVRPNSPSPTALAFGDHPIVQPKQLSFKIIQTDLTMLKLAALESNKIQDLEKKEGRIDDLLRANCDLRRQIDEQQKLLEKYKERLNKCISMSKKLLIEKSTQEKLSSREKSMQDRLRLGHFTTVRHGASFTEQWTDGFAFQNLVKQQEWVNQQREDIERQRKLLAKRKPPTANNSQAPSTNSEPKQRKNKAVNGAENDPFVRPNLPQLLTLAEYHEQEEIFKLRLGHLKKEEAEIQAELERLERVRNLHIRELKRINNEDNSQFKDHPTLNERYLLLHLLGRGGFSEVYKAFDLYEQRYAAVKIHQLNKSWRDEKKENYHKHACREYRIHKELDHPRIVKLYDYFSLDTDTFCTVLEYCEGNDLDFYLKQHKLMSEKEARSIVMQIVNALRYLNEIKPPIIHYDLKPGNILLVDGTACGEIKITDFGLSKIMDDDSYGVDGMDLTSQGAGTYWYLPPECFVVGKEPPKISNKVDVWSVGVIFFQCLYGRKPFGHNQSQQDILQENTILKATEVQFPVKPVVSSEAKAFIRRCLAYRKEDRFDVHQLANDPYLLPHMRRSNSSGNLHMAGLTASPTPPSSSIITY
The assay can be described thus: Inhibition of TLK1 (unknown origin) at 10 uM by Ambit Kinomescan binding assay.

Assay [5] deals with Serine/threonine-protein kinase MRCK gamma (Homo sapiens) (UniProt Q6DT37). The assay can be described thus: Inhibition of DMPK2 (unknown origin) at 10 uM by Ambit Kinomescan binding assay.
Sequence of Serine/threonine-protein kinase MRCK gamma (Homo sapiens) (Q6DT37 whole entry): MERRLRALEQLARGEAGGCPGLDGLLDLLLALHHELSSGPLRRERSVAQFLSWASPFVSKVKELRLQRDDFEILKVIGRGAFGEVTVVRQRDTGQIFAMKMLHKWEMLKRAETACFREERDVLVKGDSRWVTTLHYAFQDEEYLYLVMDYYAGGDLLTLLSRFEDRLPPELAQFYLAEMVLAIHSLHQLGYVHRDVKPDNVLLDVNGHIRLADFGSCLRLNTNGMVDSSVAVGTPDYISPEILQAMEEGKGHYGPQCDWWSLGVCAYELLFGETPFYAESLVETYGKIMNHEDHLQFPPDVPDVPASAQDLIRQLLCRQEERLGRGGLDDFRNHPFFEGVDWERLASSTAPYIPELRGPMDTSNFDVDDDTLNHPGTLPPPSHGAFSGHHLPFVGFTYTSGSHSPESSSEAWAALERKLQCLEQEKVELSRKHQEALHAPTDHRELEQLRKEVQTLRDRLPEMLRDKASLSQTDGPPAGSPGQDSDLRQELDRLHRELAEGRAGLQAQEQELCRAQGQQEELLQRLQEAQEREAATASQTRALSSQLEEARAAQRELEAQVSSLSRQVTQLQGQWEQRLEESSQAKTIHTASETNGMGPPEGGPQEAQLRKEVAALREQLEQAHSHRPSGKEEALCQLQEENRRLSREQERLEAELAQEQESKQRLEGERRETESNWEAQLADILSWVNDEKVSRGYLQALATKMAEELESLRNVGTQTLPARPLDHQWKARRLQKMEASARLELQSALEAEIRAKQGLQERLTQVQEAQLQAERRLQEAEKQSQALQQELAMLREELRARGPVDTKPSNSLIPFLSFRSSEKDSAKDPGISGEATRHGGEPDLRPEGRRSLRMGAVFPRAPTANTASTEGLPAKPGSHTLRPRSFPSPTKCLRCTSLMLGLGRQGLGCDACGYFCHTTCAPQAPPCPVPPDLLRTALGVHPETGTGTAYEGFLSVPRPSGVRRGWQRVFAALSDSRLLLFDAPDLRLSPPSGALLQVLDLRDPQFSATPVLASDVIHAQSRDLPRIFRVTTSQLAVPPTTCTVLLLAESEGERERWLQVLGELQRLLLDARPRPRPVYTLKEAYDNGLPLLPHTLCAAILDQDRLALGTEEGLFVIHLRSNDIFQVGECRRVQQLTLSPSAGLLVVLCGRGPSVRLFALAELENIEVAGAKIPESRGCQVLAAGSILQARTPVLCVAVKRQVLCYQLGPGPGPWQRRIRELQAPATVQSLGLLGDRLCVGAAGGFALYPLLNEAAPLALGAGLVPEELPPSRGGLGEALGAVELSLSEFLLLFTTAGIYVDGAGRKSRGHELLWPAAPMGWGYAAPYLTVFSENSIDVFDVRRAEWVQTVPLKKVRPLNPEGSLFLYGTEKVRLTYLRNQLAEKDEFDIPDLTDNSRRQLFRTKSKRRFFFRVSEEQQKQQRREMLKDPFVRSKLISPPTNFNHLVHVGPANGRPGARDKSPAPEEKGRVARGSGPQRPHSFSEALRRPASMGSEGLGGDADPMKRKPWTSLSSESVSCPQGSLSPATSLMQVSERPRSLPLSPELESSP
In assay [6] the target is Cyclin-dependent kinase 10 (Homo sapiens) (UniProt Q15131). The assay can be described thus: Inhibition of CDK10 Lys2 labeling site in human Huh-7 cell lysate at 1 uM by KiNativ Profiling analysis relative to control. The assay is classed as subcellular.
Sequence of Cyclin-dependent kinase 10 (Homo sapiens) (Q15131 whole entry): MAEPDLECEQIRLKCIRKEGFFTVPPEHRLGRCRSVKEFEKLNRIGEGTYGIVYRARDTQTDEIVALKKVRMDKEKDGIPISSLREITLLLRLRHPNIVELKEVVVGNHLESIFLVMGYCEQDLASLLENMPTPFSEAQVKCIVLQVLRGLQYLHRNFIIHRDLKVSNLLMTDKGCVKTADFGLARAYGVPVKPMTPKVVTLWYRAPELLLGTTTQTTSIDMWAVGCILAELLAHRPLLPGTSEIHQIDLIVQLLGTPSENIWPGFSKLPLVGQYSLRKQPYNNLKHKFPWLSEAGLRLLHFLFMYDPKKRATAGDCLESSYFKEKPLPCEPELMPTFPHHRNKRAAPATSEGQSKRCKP
Assay [7] deals with Cyclin-dependent kinase 2 (Homo sapiens) (UniProt P24941). Kind of assay: Inhibition of CDK2 Lys1 labeling site in human Huh-7 cells at 1 uM by KiNativ Profiling analysis relative to control. The assay is classed as cell-based.
The target in assay [8] is Phosphatidylinositol 4-kinase beta (Homo sapiens) (UniProt Q9UBF8). The assay can be described thus: Inhibition of PI4KB ATP labeling site harbouring VPHTQAVVLNSKDKAPYLIYVEVLECENFDTTSVPARIPENR in human Huh-7 cell lysate at 1 uM by KiNativ Profiling analysis relative to control. It counts as subcellular.
Sequence of Phosphatidylinositol 4-kinase beta (Homo sapiens) (Q9UBF8 2-816 limits assumed): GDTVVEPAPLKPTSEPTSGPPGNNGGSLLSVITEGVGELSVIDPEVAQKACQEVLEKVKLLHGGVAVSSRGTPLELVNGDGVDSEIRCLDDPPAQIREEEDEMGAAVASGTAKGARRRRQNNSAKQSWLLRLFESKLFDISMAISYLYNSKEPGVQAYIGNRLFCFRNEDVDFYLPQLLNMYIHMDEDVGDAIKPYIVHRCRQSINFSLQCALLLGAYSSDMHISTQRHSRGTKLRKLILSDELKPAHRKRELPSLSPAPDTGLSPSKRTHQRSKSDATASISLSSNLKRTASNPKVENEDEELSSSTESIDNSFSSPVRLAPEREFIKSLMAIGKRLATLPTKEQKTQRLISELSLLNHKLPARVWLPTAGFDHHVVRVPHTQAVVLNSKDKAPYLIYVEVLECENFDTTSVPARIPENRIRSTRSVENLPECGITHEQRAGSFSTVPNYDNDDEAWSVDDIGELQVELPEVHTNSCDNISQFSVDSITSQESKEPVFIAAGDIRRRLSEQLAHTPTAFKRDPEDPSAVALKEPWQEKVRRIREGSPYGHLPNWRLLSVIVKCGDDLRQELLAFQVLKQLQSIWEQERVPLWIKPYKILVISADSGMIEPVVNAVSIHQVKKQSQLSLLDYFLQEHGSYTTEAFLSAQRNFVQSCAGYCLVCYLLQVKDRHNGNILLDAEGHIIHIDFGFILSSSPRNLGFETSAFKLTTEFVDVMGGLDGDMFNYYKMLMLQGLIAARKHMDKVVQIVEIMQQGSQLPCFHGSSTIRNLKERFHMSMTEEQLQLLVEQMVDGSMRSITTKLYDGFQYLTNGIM

Sequence of AMPK alpha1/alpha2 (Homo sapiens) (P54646 whole entry, looked up): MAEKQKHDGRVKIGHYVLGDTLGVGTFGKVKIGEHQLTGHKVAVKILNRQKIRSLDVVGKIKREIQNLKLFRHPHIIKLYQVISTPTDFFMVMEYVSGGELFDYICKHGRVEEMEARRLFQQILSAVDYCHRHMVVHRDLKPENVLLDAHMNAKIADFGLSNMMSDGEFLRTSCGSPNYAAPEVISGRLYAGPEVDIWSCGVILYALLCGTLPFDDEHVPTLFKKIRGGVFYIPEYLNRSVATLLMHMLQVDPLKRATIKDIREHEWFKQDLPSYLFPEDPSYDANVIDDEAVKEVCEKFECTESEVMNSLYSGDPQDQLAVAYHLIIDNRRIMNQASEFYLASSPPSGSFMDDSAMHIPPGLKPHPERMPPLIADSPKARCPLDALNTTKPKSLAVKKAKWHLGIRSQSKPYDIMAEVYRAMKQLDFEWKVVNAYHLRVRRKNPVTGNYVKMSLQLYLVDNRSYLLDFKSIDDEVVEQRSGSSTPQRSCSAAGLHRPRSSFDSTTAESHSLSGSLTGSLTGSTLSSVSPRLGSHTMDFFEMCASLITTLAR
Sequence of AMPK alpha1/alpha2 (Homo sapiens) (Q13131 whole entry, looked up): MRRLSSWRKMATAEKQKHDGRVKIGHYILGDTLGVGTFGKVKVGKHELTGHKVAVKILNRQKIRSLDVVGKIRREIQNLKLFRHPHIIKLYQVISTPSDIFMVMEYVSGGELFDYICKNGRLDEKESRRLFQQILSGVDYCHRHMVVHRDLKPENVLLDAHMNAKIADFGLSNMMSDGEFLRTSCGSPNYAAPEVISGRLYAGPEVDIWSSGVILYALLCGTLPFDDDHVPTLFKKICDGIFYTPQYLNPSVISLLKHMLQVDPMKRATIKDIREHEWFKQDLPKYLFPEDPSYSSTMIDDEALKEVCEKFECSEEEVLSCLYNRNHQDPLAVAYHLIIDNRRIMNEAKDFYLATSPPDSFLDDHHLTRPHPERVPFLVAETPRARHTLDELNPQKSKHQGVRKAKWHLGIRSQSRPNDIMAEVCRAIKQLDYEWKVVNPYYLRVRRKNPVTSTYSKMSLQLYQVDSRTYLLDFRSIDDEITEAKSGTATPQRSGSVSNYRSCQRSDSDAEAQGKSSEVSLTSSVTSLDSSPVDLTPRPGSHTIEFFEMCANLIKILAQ

`CCN1CCN(Cc2ccc(NC(=O)c3ccc(C)c(/C=C/c4cnc5[nH]ccc5c4OC)c3)cc2C(F)(F)F)CC1`: the inhibition (commonly the change of the read-out against control, counted positive when it falls) in assay [1] came out at 21.5%.
With `CCN1CCN(Cc2ccc(NC(=O)c3ccc(C)c(Oc4ccnc5[nH]ccc45)c3)cc2C(F)(F)F)CC1`, the inhibition result in assay [2], in assay [4] and in assay [5] was “inactive” in each case. Besides, the inhibition in assay [3] was found to be 34.6%.
For the compound `CNc1cc(Oc2cc(C(=O)Nc3cc(N4CCN(C)CC4)cc(C(F)(F)F)c3)ccc2C)ncn1`, the inhibition was 2.7% in assay [6], -5.7% in assay [7] and 14.7% in assay [8].

Values taken from ChEMBL document CHEMBL5696442, “Discovery of type II inhibitors of TGFβ-activated kinase 1 (TAK1) and mitogen-activated protein kinase kinase kinase kinase 2 (MAP4K2)” (J Med Chem, 2015).
